Laboratory results from article PMC7822819, “Discovery of a new class of integrin antibodies for fibrosis” (Scientific Reports, 2021).
Values joined by “and” are separate entries in the source; they are usually repeats but may differ in a detail not shown here. Equal values may be shown once.

Experiments:
[1] = Plasma total drug concentration in bleomycin model (LC-MS/MS); assay type: in vivo, mouse; conditions: 2 h after last dose, Day 19; MK-0429 200 mpk minipump, Nintedanib 60 mpk po qd; mean ± SE
Method: Mice at 12 ~ 13 weeks of age were randomized to 5 groups: saline, bleomycin instillation with vehicle (osmotic minipump), bleomycin instillation with MK-0429 treatment, bleomycin instillation with vehicle oral treatment, and bleomycin instillation with Nintedanib treatment. All mice were anaesthetized with isoflurane. Bleomycin was dosed by intra-tracheal (i.t) instillation in a volume of 50 µl, at a dose of 1unit /kg body weight. After instillation, mice were kept in a heads-up position for 2–5 min before putting into cages. MK-0429 (200 mg/kg) was administered by Osmotic pump from day 5 to day 14 and Nintedanib (60 mg/kg) was administered, p.o., q.d., for 14 days. Vehicle was dosed orally at 10 am daily from the day 5 to the end of the studies and dosing volume was 10 mL/kg. For plasma PK analysis, an aliquot of 50 μL plasma was spiked into a 96-well plate, and 200 μL of acetonitrile containing internal standard were added for protein precipitation. The mixture was vortexed, centrifuged at 4000 rpm for 20 min. 50 μL of supernatant were mixed with 200 μl H2O and the final solution were injected for LC–MS/MS analysis. The methods for quantitative analysis were developed on UPLC (Waters) chromatographic system equipped with an API4000 QTrap mass spectrometer (Applied Biosystems, Concord, Ontario, Canada). […]

[2] = tested on: bleomycin-induced lung fibrosis; test: Bleomycin-induced lung fibrosis mouse model; assay type: in vivo; conditions: BLM mice, Nintedanib 60 mpk po qd
Method: Adult male C57BL/6 mice (Taconic, Rensselaer, NY) were housed in a temperature and humidity-controlled facility with a 12 h light: 12-h dark cycle. Animals had ad libitum access to food (Purina Rodent Chow 5053, LabDiet, St. Louis, MO) and water. All procedures utilizing experimental animals were conducted in accordance with the Guide for the Care and Use of Laboratory Animals, and experimental procedures were reviewed and approved by the Institutional Animal Care and Use Committee at MRL, Kenilworth, NJ. For osmotic minipump implantation, TFA salt of MK-0429 was formulated in 50% DMSO/50% H2O at a concentration of 416 mg/mL. MK-0429 or vehicle solution were filled in minipumps (Alzet, # 1007D, flow rate 0.5 μL/h). Minipumps were placed in mice subcutaneously in a pocket on the back between the shoulder blades. A small incision was made and a subcutaneous pocket formed by blunt dissection. A sterile minipump was inserted into the subcutaneous pocket. The incision was closed with staples or non-absorbable suture or absorbable (subcuticular) suture. The minipumps were used for continuous drug delivery for 2 weeks. Mice at 12 ~ 13 weeks of age were randomized to 5 groups: saline, bleomycin instillation with vehicle (osmotic minipump), bleomycin instillation with MK-0429 treatment, bleomycin instillation with vehicle oral treatment, and bleomycin instillation with Nintedanib treatment. All mice were anaesthetized with isoflurane. Bleomycin was dosed by intra-tracheal (i.t) instillation in a volume of 50 µl, at a dose of 1unit /kg body weight. After instillation, mice were kept in a heads-up position for 2–5 min before putting into cages. MK-0429 (200 mg/kg) was administered by Osmotic pump from day 5 to day 14 and Nintedanib (60 mg/kg) was administered, p.o., q.d., for 14 days. Vehicle was dosed orally at 10 am daily from the day 5 to the end of the studies and dosing volume was 10 mL/kg. For plasma PK analysis, an aliquot of 50 μL plasma was spiked into a 96-well plate, and 200 μL of acetonitrile containing internal standard were added for protein precipitation. The mixture was vortexed, centrifuged at 4000 rpm for 20 min. 50 μL of supernatant were mixed with 200 μl H2O and the final solution were injected for LC–MS/MS analysis. The methods for quantitative analysis were developed on UPLC (Waters) chromatographic system equipped with an API4000 QTrap mass spectrometer (Applied Biosystems, Concord, Ontario, Canada). Analyst 1.5 software packages (Applied Biosystems) were used to control the LC–MS/MS system and data acquisition and processing. Upon completion of the study, animals were euthanized and tissues were collected for histological assessment. Lung tissues were perfused with 10% formalin, fixed for 24 h, and then paraffin embedded. Tissue sections were stained with hematoxylin & eosin (H&E) and Masson’s trichrome, subsequently evaluated under light microscope. The severity of histopathologic changes and fibrosis in the lung were graded as described previously by pathologists[51],[52]. Following deparaffinization and rehydration, each lung tissue section was processed to identify αSMA deposition by immunohistochemistry. The primary antibodies used were αSMA antibody from Sigma. The Aperio ScanScope XT Slide Scanner (Aperio Technologies) system was used to capture whole slide digital images with a 20 × objective. Digital images were managed using Aperio Spectrum. The positive stains were identified and quantified using a macro created from a color deconvolution algorithm (Aperio Technologies). Statistical analysis was performed by using One-way ANOVA followed by Tukey’s test.

[3] = treatment from day 5 for 14 days, MK-0429 200 mpk osmotic minipump, vs BLM-vehicle

Structure (SMILES): COc1ccc(C(CC(=O)O)N2CCN(CCCc3ccc4c(n3)NCCC4)C2=O)cn1 (stereo not drawn) [MK-0429]
- Mean plasma total drug concentration [1]: 3701 ng/mL and 3701 ± 902 ng/mL
- TIMP-1 content in BALF ([2]; 14 days treatment, MK-0429 200 mpk minipump): did not reach statistical significance
- Modified Ashcroft score of mouse lung [2, 3]: significantly decreased
- Total inflammation area in mouse lungs [2, 3]: nonstatistical significant decrease
- αSMA immunohistochemistry in lung [2, 3]: significantly decreased
- Body weight vs bleomycin group ([2]; MK-0429 200 mpk minipump): no significant body weight difference
